Results as given in ChEMBL document CHEMBL1134484, “Homology modeling using multiple molecular dynamics simulations and docking studies of the human androgen receptor ligand binding domain bound to testosterone and nonsteroidal ligands” (J Med Chem, 2001).
pKi: −log10 of the molar value.

Assays:
Androgen receptor [1] = molecular target: T1, Androgen receptor (Homo sapiens, UniProt P10275); assay: Binding affinity against human androgen receptor (hAR) in competitive binding assay
T1 sequence (P10275 whole entry): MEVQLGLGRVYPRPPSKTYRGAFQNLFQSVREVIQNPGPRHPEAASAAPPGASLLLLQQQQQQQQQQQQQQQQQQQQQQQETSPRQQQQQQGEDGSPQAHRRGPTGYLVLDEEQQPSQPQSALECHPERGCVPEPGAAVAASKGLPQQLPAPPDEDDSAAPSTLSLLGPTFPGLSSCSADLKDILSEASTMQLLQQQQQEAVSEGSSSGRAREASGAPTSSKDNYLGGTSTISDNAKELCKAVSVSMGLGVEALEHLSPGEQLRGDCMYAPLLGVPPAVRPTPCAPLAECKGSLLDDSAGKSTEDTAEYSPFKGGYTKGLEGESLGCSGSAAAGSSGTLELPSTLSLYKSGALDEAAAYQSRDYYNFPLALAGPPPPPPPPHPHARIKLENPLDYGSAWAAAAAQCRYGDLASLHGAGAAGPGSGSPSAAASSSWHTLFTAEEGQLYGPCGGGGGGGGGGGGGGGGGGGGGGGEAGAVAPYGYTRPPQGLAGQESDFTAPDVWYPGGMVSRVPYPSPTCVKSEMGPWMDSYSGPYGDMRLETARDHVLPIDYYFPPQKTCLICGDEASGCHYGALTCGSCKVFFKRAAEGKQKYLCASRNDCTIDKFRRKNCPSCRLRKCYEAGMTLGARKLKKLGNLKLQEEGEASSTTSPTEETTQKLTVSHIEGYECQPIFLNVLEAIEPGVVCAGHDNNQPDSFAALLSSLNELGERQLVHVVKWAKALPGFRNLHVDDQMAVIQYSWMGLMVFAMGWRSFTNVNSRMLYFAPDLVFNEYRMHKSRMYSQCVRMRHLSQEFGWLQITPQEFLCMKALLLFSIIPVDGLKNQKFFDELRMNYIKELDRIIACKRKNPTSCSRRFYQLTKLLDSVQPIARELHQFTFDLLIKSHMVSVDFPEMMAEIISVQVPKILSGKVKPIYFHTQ

Androgen receptor [2] = molecular target: T1, Androgen receptor; assay: Binding affinity against human androgen receptor (hAR) in competitive binding assay; NB means No binding

| SMILES | pKi (Androgen receptor [1]) | Ki (Androgen receptor [2]) |
| --- | --- | --- |
| C[C@](O)(CBr)C(=O)Nc1ccc(N)c(C(F)(F)F)c1 | 7.09 | – |
| C[C@@]1(C(=O)Nc2ccc([N+](=O)[O-])c(C(F)(F)F)c2)CO1 | – | Not Active |
